Results: patent publication US20230158057A1, “COMPOSITIONS AND METHODS FOR THE TREATMENT OF PAIN” (Duke University, priority 2020, published 2023)
Entries after “also recorded” stand apart in the source; their conditions may differ.

Key:
Format in all cases: in vivo, mouse
[1] = test system: mice with intrafemoral Lewis lung carcinoma (LLC); assay: LLC bone cancer pain model, systemic (i.p.) treatment, behavior tests and body weight; details: for spontaneous and ongoing pain (flinching, guarding): d14; for body weight / cancer-induced cold allodynia / cancer-induced mechanical allodynia (paw withdrawal threshold): twice i.p.; for cancer-induced mechanical allodynia (paw withdrawal threshold): DMXAA, ADU-S100 20 mg/kg, ZA 100 μg/kg; for acute effect on bone cancer pain: d11, 4 h after single i.p. injection
Method: Bone cancer pain model. The murine cell lines LLC1, LL/2-Luc2 or E0771 were lightly digested using 0.05% trypsin, followed by centrifugation to remove poorly digested cell clusters. Cells were then resuspended in PBS at a concentration of 1×10^8 cells/ml. The inoculation was performed as previously described (Wang, K. et al. “PD-1 blockade inhibits osteoclast formation and murine bone cancer pain.” The Journal of clinical investigation, (2020); Wang, Z. et al. “Anti-PD-1 treatment impairs opioid antinociception in rodents and nonhuman primates.” Sci Transl Med 12 (2020)). Briefly, mice were anesthetized with 4% isoflurane and the left leg was shaved and the skin disinfected with 10% povidone-iodine and 75% ethanol. A superficial incision (0.5-1 cm) was made near the knee joint, exposing the patellar ligament. […] The syringe contents were slowly injected into the femoral cavity over a 2-minute interval. To prevent further leakage of tumor cells outside of the bone cavity, the outer injection site was sealed with silicone adhesive (Kwik-Sil, World Precision Instruments, US). Animals with surgery related movement dysfunction or with outside bone tumor injection were excluded from the study. Drug treatment. […] All other reagents were dissolved in sterile saline or PBS. For experiments utilizing rabbit anti-IFN-α or -β neutralizing antibodies, a polyclonal rabbit IgG antibody served as the control. […] Behavior tests. All the behavioral tests were conducted in a blinded manner and performed during between the hours of 9:00-16:00. Animals were habituated in a light and humidity controlled testing environment for at least 2 days prior to baseline testing. For Von Frey testing, mice were confined to individual 5×5 cm boxes placed on an elevated wire grid. A blinded experimenter stimulated their hindpaws using a series of von Frey filaments with logarithmically increasing stiffness (0.02-2.56 g, Stoelting). Each filament was applied perpendicularly to the central plantar surface. The 50% paw withdrawal threshold was determined using Dixon's up-down method.

[2] = test system: IFN-α; assay: IFN-α ELISA in serum and bone marrow lysate after i.p. STING agonist, LLC model; details: for increase of serum levels of IFN-α: 4 h after a single i.p. injection 20 mg/kg on d3, vs vehicle; for IFN-α in bone marrow (BM) lysate: 4 h after i.p., d3
Method: ELISA. Mouse high-sensitivity IFN-α ELISA kit (42115-1) and IFN-β ELISA kit (42410-1) were purchased from PBL Assay Science. Mouse CTX-I ELISA kit (AC-06F1) and mouse PINP ELISA kit (AC-33F1) were purchased from Immunodiagnostic Systems. ELISA was performed using culture medium, serum, and bone marrow lysates. Serum was obtained from whole blood that was collected from a submandibular vein via facial vein puncture, coagulated for 30 minutes at room temperature, followed by centrifugation (2,000 ×g for 10 min, 4° C.) and collection of the supernatant (serum). Bone marrow was homogenized in a lysis buffer containing protease inhibitors at 4° C. for 30 minutes. ELISA was conducted in accordance with the manufacturer's instructions. A standard curve was performed for each experiment.

[3] = test system: female C57BL/6 mice with intrafemoral E0771 breast carcinoma; assay: E0771 breast cancer-induced bone cancer pain model; details: for bone destruction scored from X-ray images: E0771-bearing femora; for body weight / mechanical allodynia, cold allodynia and spontaneous pain: E0771 model
Method: Bone cancer pain model. The murine cell lines LLC1, LL/2-Luc2 or E0771 were lightly digested using 0.05% trypsin, followed by centrifugation to remove poorly digested cell clusters. Cells were then resuspended in PBS at a concentration of 1×10^8 cells/ml. The inoculation was performed as previously described (Wang, K. et al. “PD-1 blockade inhibits osteoclast formation and murine bone cancer pain.” The Journal of clinical investigation, (2020); Wang, Z. et al. “Anti-PD-1 treatment impairs opioid antinociception in rodents and nonhuman primates.” Sci Transl Med 12 (2020)). Briefly, mice were anesthetized with 4% isoflurane and the left leg was shaved and the skin disinfected with 10% povidone-iodine and 75% ethanol. A superficial incision (0.5-1 cm) was made near the knee joint, exposing the patellar ligament. A new 25-gauge needle was inserted at the site of the intercondylar notch of the left femur into the femoral cavity, which was then replaced with a 10 μL microinjection syringe containing a 2 μL suspension of tumor cells (2×10^5) followed by 2 μL absorbable gelatin sponge solution to seal the injection site. The syringe contents were slowly injected into the femoral cavity over a 2-minute interval. To prevent further leakage of tumor cells outside of the bone cavity, the outer injection site was sealed with silicone adhesive (Kwik-Sil, World Precision Instruments, US). Animals with surgery related movement dysfunction or with outside bone tumor injection were excluded from the study.
Behavior tests. All the behavioral tests were conducted in a blinded manner and performed during between the hours of 9:00-16:00. Animals were habituated in a light and humidity controlled testing environment for at least 2 days prior to baseline testing. For Von Frey testing, mice were confined to individual 5×5 cm boxes placed on an elevated wire grid. A blinded experimenter stimulated their hindpaws using a series of von Frey filaments with logarithmically increasing stiffness (0.02-2.56 g, Stoelting). Each filament was applied perpendicularly to the central plantar surface. The 50% paw withdrawal threshold was determined using Dixon's up-down method. In addition, we also measured paw withdrawal frequency to repeated stimulation (10 times, with ˜1-2 minutes between each stimulation) using a subthreshold 0.16 g von Frey filament, which is a more sensitive method to detect mechanical allodynia. To measure cold allodynia, mice were similarly isolated to individual boxes on an elevated mesh floor, and a drop (˜20-30 μl) of acetone was applied to the plantar hindpaw. […] To measure locomotor function, we performed open field testing in which mice were placed in the center of a 45×45 cm chamber and locomotor activity was recorded by an overhead webcam connected to a laptop computer, and animals' movements were automatically tracked for 30 minutes using ANY-Maze. The total distance traveled and mean speed during the 30-minute period were analyzed.
In vivo X-ray radiography. Osteolytic bone destruction was continuously evaluated by radiography using the MultiFocus by Faxitron system (Faxitron Bioptics LLC, Tucson, Ariz.). Radiographs of tumor-bearing femora were rated for bone destruction on a 0-5 score scale based on previous study: 0 for normal bone at baseline without tumor inoculation; 1 for one to three radiolucent lesions indicative of bone destruction compared to baseline; 2 for increased number of lesions (three to six lesions) and loss of medullary bone; 3 for loss of medullary bone and erosion of cortical bone; 4 for full-thickness unicortical bone loss; 5 for full-thickness bicortical bone loss and displaced skeletal fracture. All radiographic image quantifications were completed by an experimenter who was blinded to the experimental conditions.
STING agonist treatment protects against breast cancer induced bone pain and bone destruction. […]

| Compound | spontaneous and ongoing pain (flinching, guarding) ([1]; LLC model) | withdrawal frequency to low-threshold stimulation (0.16 g Von Frey filament) ([1]; LLC model, i.p. at d3 and d10) | body weight ([1]; LLC model) | cancer-induced cold allodynia ([1]; LLC model) | cancer-induced mechanical allodynia (paw withdrawal threshold) ([1]; LLC model) | acute effect on bone cancer pain [1] | increase of serum levels of IFN-α [2] | IFN-α in bone marrow (BM) lysate [2] | bone destruction scored from X-ray images [3] | body weight [3] | mechanical allodynia, cold allodynia and spontaneous pain [3] | mechanical and cold allodynia, WT and Rag1^−/− ([1]; 20 mg/kg i.p. d3 and d7) | mechanical and cold allodynia, WT vs Ifnar1^−/− ([1]; 20 mg/kg i.p. d3 and d7) | mechanical and cold allodynia, WT vs STING^gt/gt ([1]; 20 mg/kg i.p. d3 and d7) | mechanical or cold allodynia in Batf3^−/− mice ([1]; 20 mg/kg i.p. d3 and d7) | acute effect on mechanical and cold allodynia, WT vs STING^gt/gt or Ifnar1^−/− ([1]; 20 mg/kg i.p., 4 h) | acute antinociceptive effects, WT vs Ifnar1-cKO ([1]; single 20 mg/kg i.p.) |
| --- | --- | --- | --- | --- | --- | --- | --- | --- | --- | --- | --- | --- | --- | --- | --- | --- | --- |
| Nc1ncnc2c1ncn2[C@@H]1O[C@@H]2COP(=O)([S-])O[C@@H]3[C@H](O)[C@@H](COP([O-])(=S)O[C@H]2[C@H]1O)O[C@H]3n1cnc2c(N)ncnc21.[Na+].[Na+] (stereo partly drawn) [ADU-S100, (2′-5′)-[P(R)]-5′-O-[(R)-hydroxymercaptophosphinyl]-P-thioadenylyl-adenosine cyclic dinucleotide] | exhibited reduced spontaneous and ongoing pain | could significantly attenuate mechanical allodynia in both measures on d10 and d14 | no effect on overall body weight | reduced cold allodynia on both d10 and d14 | could significantly attenuate mechanical allodynia in both measures on d10 and d14 | substantial reduction in mechanical allodynia, cold allodynia, and spontaneous pain | approximately 1000 fold | sharply increased | could also attenuate bone destruction | had no effect on body weight | could markedly reduce mechanical allodynia, cold allodynia and spontaneous pain |  |  |  |  |  |  |
| Cc1ccc2c(=O)c3cccc(CC(=O)O)c3oc2c1C [DMXAA, 2-(5,6-dimethyl-9-oxo-9H-xanthen-4-yl)acetic acid] | attenuated measures of spontaneous and ongoing pain |  | no differences in body weight; also recorded: did not see body weight changes | significantly reduced | significantly reduced mechanical allodynia on d7, d10 and d14 | substantial reduction in mechanical allodynia, cold allodynia, and spontaneous pain | approximately 1000 fold | sharply increased | could also attenuate bone destruction | had no effect on body weight | could markedly reduce mechanical allodynia, cold allodynia and spontaneous pain | reduced by DMXAA treatment in both WT and Rag1^−/− mice at early stages (7 d and 10 d), but not at later stages | effectively attenuated cancer-induced mechanical allodynia and cold allodynia in WT mice but not Ifnar1^−/− mice | significantly attenuated mechanical and cold allodynia in WT mice, and this effect was abolished in STING^gt/gt mice | could attenuate mechanical allodynia or cold allodynia in Batf3^−/− mice on d7 and d10 but not day 14 | could reduce mechanical allodynia and cold allodynia in WT mice but not in STING^gt/gt mice or Ifnar1^−/− mice | present in WT, but not Ifnar1-cKO littermates |
